Patent publication US9723860B2, “Method for improving economic performance in poultry husbandry” (PURAC BIOCHEM BV, priority 2012, dated 2017)

Test system: Broiler chickens
Assay: Example 2: 20 day performance of broilers on decreasing levels of lactylate mixture or diclazuril
Type: in vivo, chicken (broilers)
Settings: day 20
Source text: Broilers were reared on a diet containing either decreasing levels of a mixture of lauric and myristic lactylates (lactylate test diet), or an effective dose of diclazuril (coccidiostat diet), or a filler consisting of corn starch and kaolin. The birds fed the test diet including the lactylates received the lactylates from the first feed onwards. For the first 10 days, the dosing level of lactylates was 0.4%. From day 11 onwards, the dosing level was reduced to 0.3%. At day 20, the economic performance of the broilers was evaluated using the body weight, body weight gain, feed consumption and feed-to-gain ratio.

[1] = lactylates 0.4% first 10 days, 0.3% from day 11, diclazuril effective dose, in diet

## N#CC(c1ccc(Cl)cc1)c1c(Cl)cc(-n2ncc(=O)[nH]c2=O)cc1Cl (centres unmarked) [Coccidiostat, diclazuril]
  economic performance versus control group: did not improve performance
[1]
  Body weight: 850 g
  Body weight gain: 804 g
  Feed Consumption: 1115 g
  Feed-to-Gain ratio: 1.388 g/g
